From ChEMBL document CHEMBL3407381, “Synthesis, biological evaluation and 3D QSAR study of 2,4-disubstituted quinolines as anti-tuberculosis agents” (Eur J Med Chem, 2015)

Assays:
[1] = tested on: Mycobacterium tuberculosis; experiment: Anti-tuberculosis activity against Mycobacterium tuberculosis H37Rv assessed as inhibition of microbial growth at 6.25 ug/ml by MABA method; format: functional
L929 = experiment: Cytotoxicity against mouse L929 cells assessed as reduction cell viability after 5 days by MTT assay; format: cell-based; settings: l929, 120 h
[2] = tested on: Mycobacterium tuberculosis; experiment: Anti-tuberculosis activity against Mycobacterium tuberculosis H37Rv assessed as inhibition of microbial growth by MABA method; format: functional, organism-based
[3] = tested on: Mycobacterium tuberculosis; experiment: Anti-tuberculosis activity against Mycobacterium tuberculosis H37Rv assessed as inhibition of microbial growth at 1.56 ug/ml by MABA method; format: functional
[4] = tested on: Mycobacterium tuberculosis; experiment: Anti-tuberculosis activity against Mycobacterium tuberculosis H37Rv assessed as inhibition of microbial growth at 3.125 ug/ml by MABA method; format: functional

**Q.** `Cc1ccc(C(O)c2cc(C34CC5CC(CC(C5)C3)C4)c3ccccc3n2)cc1` (centres undefined) was tested. Which inhibition at 6.25 µg/mL [1] did it give?
**A.** 76%

**Q.** What about the Activity (L929) of the same compound?
**A.** > 200 µg/mL

**Q.** And the IC50 [2]?
**A.** 5.01 µM

**Q.** What about the MIC90 [2] of the same compound?
**A.** 6.25 µg/mL

**Q.** Which results are given for `OC(c1ccccc1)c1cc(C23CC4CC(CC(C4)C2)C3)c2ccccc2n1` (centres undefined)?
**A.** inhibition at 6.25 µg/mL [1]: 86%; Activity (L929): > 200 µg/mL; IC50 [2]: 3.09 µM; MIC90 [2]: 6.25 µg/mL

**Q.** With `CC1CCCCC1c1cc(C(=O)NN)nc2ccccc12` (centres undefined) as the compound, how does the inhibition at 6.25 µg/mL [1] read?
**A.** 99%

**Q.** What about the Activity (L929) of the same compound?
**A.** > 200 µg/mL

**Q.** What about the IC50 [2] of the same compound?
**A.** 0.457 µM

**Q.** What about the MIC90 [2] of the same compound?
**A.** 3.12 µg/mL

**Q.** And the inhibition at 1.56 µg/mL [3]?
**A.** 77%

**Q.** And the inhibition at 3.125 µg/mL [4]?
**A.** 99%

**Q.** `NNC(=O)c1ccncc1` [ISONIAZID] was tested. Which MIC99 [2] did it give?
**A.** 0.1 µg/mL

**Q.** With `COC(=O)c1cc(C23CC4CC(CC(C4)C2)C3)c2ccccc2n1` as the compound, how does the inhibition at 6.25 µg/mL [1] read?
**A.** ≥ 90%

**Q.** What does the source list for `O=C(c1cc(C23CC4CC(CC(C4)C2)C3)c2ccccc2c1)N1CCN(c2ccccc2)CC1`?
**A.** inhibition at 6.25 µg/mL [1]: 90%; Activity (L929): > 200 µg/mL; IC50 [2]: 0.871 µM; MIC90 [2]: 6.25 µg/mL

**Q.** Which inhibition at 6.25 µg/mL [1] does the source give for `COC(=O)c1ccc2ccccc2n1` here?
**A.** ≥ 90%

**Q.** For `OC(c1cc(C23CC4CC(CC(C4)C2)C3)c2ccccc2n1)c1cccc2ccccc12` (centres undefined), which inhibition at 6.25 µg/mL [1] is on record?
**A.** 9%

**Q.** And the Activity (L929)?
**A.** > 200 µg/mL

**Q.** And the IC50 [2]?
**A.** 182 µM

**Q.** What about the MIC90 [2] of the same compound?
**A.** 6.25 µg/mL

**Q.** Which results are given for `C=CCC(O)c1cc(C23CC4CC(CC(C4)C2)C3)c2ccccc2n1` (centres undefined)?
**A.** inhibition at 6.25 µg/mL [1]: 44%; Activity (L929): > 200 µg/mL; IC50 [2]: 22.9 µM; MIC90 [2]: 6.25 µg/mL

**Q.** For `NNC(=O)c1cc(C23CC4CC(CC(C4)C2)C3)c2ccccc2n1`, which inhibition at 6.25 µg/mL [1] is on record?
**A.** 99%

**Q.** And the Activity (L929)?
**A.** > 200 µg/mL

**Q.** And the IC50 [2]?
**A.** 0.389 µM

**Q.** What about the MIC90 [2] of the same compound?
**A.** 3.12 µg/mL

**Q.** And the inhibition at 1.56 µg/mL [3]?
**A.** 80%

**Q.** What about the inhibition at 3.125 µg/mL [4] of the same compound?
**A.** 99%

**Q.** With `CCC(O)c1cc(C23CC4CC(CC(C4)C2)C3)c2ccccc2n1` (centres undefined) as the compound, how does the inhibition at 6.25 µg/mL [1] read?
**A.** 73%

**Q.** What about the Activity (L929) of the same compound?
**A.** > 200 µg/mL

**Q.** And the IC50 [2]?
**A.** 6.92 µM

**Q.** And the MIC90 [2]?
**A.** 6.25 µg/mL

**Q.** What does the source list for `CC1CCC(c2cc(C(=O)NN)nc3ccccc23)CC1` (centres undefined)?
**A.** inhibition at 6.25 µg/mL [1]: 84%; Activity (L929): > 200 µg/mL; IC50 [2]: 3.55 µM; MIC90 [2]: 6.25 µg/mL

**Q.** Which results are given for `CCCCC(O)c1cc(C23CC4CC(CC(C4)C2)C3)c2ccccc2n1` (centres undefined)?
**A.** inhibition at 6.25 µg/mL [1]: 91%; Activity (L929): > 200 µg/mL; IC50 [2]: 2.19 µM; MIC90 [2]: 6.25 µg/mL

**Q.** Which results are given for `O=C(c1cc(C23CC4CC(CC(C4)C2)C3)c2ccccc2c1)N1CCN(c2ccccn2)CC1`?
**A.** inhibition at 6.25 µg/mL [1]: 8%; Activity (L929): > 200 µg/mL; IC50 [2]: 63.1 µM; MIC90 [2]: 6.25 µg/mL

**Q.** What does the source list for `OC(c1ccc(F)cc1)c1cc(C23CC4CC(CC(C4)C2)C3)c2ccccc2n1` (centres undefined)?
**A.** inhibition at 6.25 µg/mL [1]: 99%; Activity (L929): > 200 µg/mL; IC50 [2]: 0.316 µM; MIC90 [2]: 3.12 µg/mL; inhibition at 1.56 µg/mL [3]: 69%; inhibition at 3.125 µg/mL [4]: 99%

**Q.** Which results are given for `NNC(=O)c1cc(C2CCC(C(F)(F)F)CC2)c2ccccc2n1` (centres undefined)?
**A.** inhibition at 6.25 µg/mL [1]: 89%; Activity (L929): > 200 µg/mL; IC50 [2]: 2.75 µM; MIC90 [2]: 6.25 µg/mL

**Q.** With `CO[C@H]1/C=C/O[C@@]2(C)Oc3c(C)c(O)c4c(O)c(c(/C=N/N5CCN(C)CC5)c(O)c4c3C2=O)NC(=O)/C(C)=C\C=C\[C@H](C)[C@H](O)[C@@H](C)[C@@H](O)[C@@H](C)[C@H](OC(C)=O)[C@@H]1C` [RIFAMPIN] as the compound, how does the MIC99 [2] read?
**A.** 0.2 µg/mL

**Q.** How did the inhibition at 6.25 µg/mL [1] turn out when `O=C(c1cc(C23CC4CC(CC(C4)C2)C3)c2ccccc2c1)N1CCCC1` was run?
**A.** 53%

**Q.** And the Activity (L929)?
**A.** > 200 µg/mL

**Q.** What about the IC50 [2] of the same compound?
**A.** 13.2 µM

**Q.** And the MIC90 [2]?
**A.** 6.25 µg/mL

**Q.** `CO[C@H]1CC[C@H](c2cc(C(=O)NN)nc3ccccc32)CC1` was tested. Which inhibition at 6.25 µg/mL [1] did it give?
**A.** 32%

**Q.** And the Activity (L929)?
**A.** > 200 µg/mL

**Q.** And the IC50 [2]?
**A.** 32.4 µM

**Q.** What about the MIC90 [2] of the same compound?
**A.** 6.25 µg/mL

**Q.** How did the inhibition at 6.25 µg/mL [1] turn out when `CC(C)(C)C1CCC(c2cc(C(=O)NN)nc3ccccc23)CC1` (centres undefined) was run?
**A.** 99%

**Q.** What about the Activity (L929) of the same compound?
**A.** > 200 µg/mL

**Q.** And the IC50 [2]?
**A.** 0.347 µM

**Q.** What about the MIC90 [2] of the same compound?
**A.** 3.12 µg/mL

**Q.** What about the inhibition at 1.56 µg/mL [3] of the same compound?
**A.** 82%

**Q.** And the inhibition at 3.125 µg/mL [4]?
**A.** 99%

**Q.** Which results are given for `CO[C@H]1CC[C@@H](c2cc(C(=O)NN)nc3ccccc32)CC1`?
**A.** inhibition at 6.25 µg/mL [1]: 90%; Activity (L929): > 200 µg/mL; IC50 [2]: 2.34 µM; MIC90 [2]: 6.25 µg/mL

**Q.** How did the inhibition at 6.25 µg/mL [1] turn out when `COc1ccc(C(O)c2cc(C34CC5CC(CC(C5)C3)C4)c3ccccc3n2)cc1` (centres undefined) was run?
**A.** 47%

**Q.** And the Activity (L929)?
**A.** > 200 µg/mL

**Q.** What about the IC50 [2] of the same compound?
**A.** 83.2 µM

**Q.** What about the MIC90 [2] of the same compound?
**A.** 6.25 µg/mL

**Q.** `NNC(=O)c1cc(CC2CC3CCC2C3)c2ccccc2n1` (centres undefined) was tested. Which inhibition at 6.25 µg/mL [1] did it give?
**A.** 92%

**Q.** And the Activity (L929)?
**A.** > 200 µg/mL

**Q.** What about the IC50 [2] of the same compound?
**A.** 1.95 µM

**Q.** What about the MIC90 [2] of the same compound?
**A.** 6.25 µg/mL

**Q.** For `O=C(c1cc(C23CC4CC(CC(C4)C2)C3)c2ccccc2c1)N1CCNCC1`, which inhibition at 6.25 µg/mL [1] is on record?
**A.** 82%

**Q.** And the Activity (L929)?
**A.** > 200 µg/mL

**Q.** What about the IC50 [2] of the same compound?
**A.** 3.09 µM

**Q.** What about the MIC90 [2] of the same compound?
**A.** 6.25 µg/mL

**Q.** `COC1CCCC(c2cc(C(=O)NN)nc3ccccc23)C1` (centres undefined) was tested. Which inhibition at 6.25 µg/mL [1] did it give?
**A.** 90%

**Q.** What about the Activity (L929) of the same compound?
**A.** > 200 µg/mL

**Q.** What about the IC50 [2] of the same compound?
**A.** 2.95 µM

**Q.** And the MIC90 [2]?
**A.** 6.25 µg/mL

**Q.** How did the inhibition at 6.25 µg/mL [1] turn out when `O=C(NO)c1cc(C23CC4CC(CC(C4)C2)C3)c2ccccc2c1` was run?
**A.** 91%

**Q.** And the Activity (L929)?
**A.** > 200 µg/mL

**Q.** And the IC50 [2]?
**A.** 1.17 µM

**Q.** And the MIC90 [2]?
**A.** 6.25 µg/mL

**Q.** Which results are given for `O=C(c1cc(C23CC4CC(CC(C4)C2)C3)c2ccccc2c1)N1CCOCC1`?
**A.** inhibition at 6.25 µg/mL [1]: 14%; Activity (L929): > 200 µg/mL; IC50 [2]: 110 µM; MIC90 [2]: 6.25 µg/mL

**Q.** For `O=C(c1cc(C23CC4CC(CC(C4)C2)C3)c2ccccc2c1)N1CCCCC1`, which inhibition at 6.25 µg/mL [1] is on record?
**A.** 9%

**Q.** And the Activity (L929)?
**A.** > 200 µg/mL

**Q.** And the IC50 [2]?
**A.** 120 µM

**Q.** What about the MIC90 [2] of the same compound?
**A.** 6.25 µg/mL

**Q.** What does the source list for `CCCC(O)c1cc(C23CC4CC(CC(C4)C2)C3)c2ccccc2n1` (centres undefined)?
**A.** inhibition at 6.25 µg/mL [1]: 86%; Activity (L929): > 200 µg/mL; IC50 [2]: 4.47 µM; MIC90 [2]: 6.25 µg/mL

**Q.** `CN(C)c1ccc(C(O)c2cc(C34CC5CC(CC(C5)C3)C4)c3ccccc3n2)cc1` (centres undefined) was tested. Which inhibition at 6.25 µg/mL [1] did it give?
**A.** 4%

**Q.** And the Activity (L929)?
**A.** > 200 µg/mL

**Q.** What about the IC50 [2] of the same compound?
**A.** 331 µM

**Q.** What about the MIC90 [2] of the same compound?
**A.** 6.25 µg/mL

**Q.** With `O=C(NC1CCN(Cc2ccccc2)CC1)c1cc(C23CC4CC(CC(C4)C2)C3)c2ccccc2c1` as the compound, how does the inhibition at 6.25 µg/mL [1] read?
**A.** 90%

**Q.** And the Activity (L929)?
**A.** > 200 µg/mL

**Q.** And the IC50 [2]?
**A.** 1.51 µM

**Q.** And the MIC90 [2]?
**A.** 6.25 µg/mL

**Q.** What does the source list for `CN1CCN(C(=O)c2cc(C34CC5CC(CC(C5)C3)C4)c3ccccc3c2)CC1`?
**A.** inhibition at 6.25 µg/mL [1]: 87%; Activity (L929): > 200 µg/mL; IC50 [2]: 5.89 µM; MIC90 [2]: 6.25 µg/mL
